Assay results published in patent US20200199102A1, “COMPOUNDS THAT PARTICIPATE IN COOPERATIVE BINDING AND USES THEREOF” (Revolution Medicines, Inc., priority 2017, published 2020).
Where a SMILES comes first, the peptide text is derived from it. [ ]: non-standard residue; d: D form. MeBmt = C/C=C/C[C@@H](C)[C@@H](O)[C@H](NC)C(=O)O; NMeY = CN[C@@H](Cc1ccc(O)cc1)C(=O)O; NMeF = CN[C@@H](Cc1ccccc1)C(=O)O; NMeI = CC[C@H](C)[C@H](NC)C(=O)O; NMeT = CN[C@H](C(=O)O)[C@@H](C)O; NMeL = CN[C@@H](CC(C)C)C(=O)O; dNMeV = CN[C@@H](C(=O)O)C(C)C; NMeNva = CCC[C@H](NC)C(=O)O; NMeV = CN[C@H](C(=O)O)C(C)C; NMeA = CN[C@@H](C)C(=O)O; dNMeA = CN[C@H](C)C(=O)O; Abu = CC[C@H](N)C(=O)O; Sar = CNCC(=O)O

Target: T1, Cyclophilin A (Homo sapiens, UniProt P62937)
T1 construct: made in house
Assay: AlphaLISA inhibition of binding of biotinylated Cyclosporin A to FLAG tagged Cyclophilin A
Settings: for % signal: AlphaLISA signal; for % signal / % inhibition of CsA binding to Cyclophilin A: test concentration not given; for IC50: read-out: IC50 value of CsA binding to Cyclophilin A
Source text: The binding of compounds of the invention to Cyclophilin A can be determined using the following protocol.
This protocol utilizes Perkin Elmers AlphaLISA technology platform to detect cyclosporine analogues by measuring the inhibition of binding of biotinylated Cyclosporin A to FLAG tagged Cyclophilin A.
10×TBST Buffer (Boston BioProducts IBB-181), Biotinylated Cyclosporin A (in-house), FLAG tagged Cyclophilin A (in-house); anti-FLAG Donor beads (PerkinElmer AS103) and Streptavidin Acceptor beads (PerkinElmer AL125); Compounds in DMSO (in-house), Cyclosporin A (LC Labs Cat #C-6000).
Add 20 uL of 6 nM Biotinylated CsA working stock to each well of the 96-well plate. Add 1 uL of test compound (100% DMSO) to each well of the plate using the Janus MTD head and P20 tips (except control wells). Add 1 uL of DMSO to negative control wells and 1 uL of 500 uM Cyclosporin A solution to positive control wells. In the dark, add 20 uL of combined Donor/Acceptor beads to each well. Incubate in the dark for 30 minutes at room temperature. In the dark, add 10 uL of 25 nM Flag tagged CypA working stock to each well. Incubate in the dark for 60 minutes at room temperature. Protect plate from light until reading on Biotek Synergy2 Plate Reader; Alphalisa 96-well protocol (680 excitation/615 emission).

T1 sequence (P62937 whole entry, species assumed): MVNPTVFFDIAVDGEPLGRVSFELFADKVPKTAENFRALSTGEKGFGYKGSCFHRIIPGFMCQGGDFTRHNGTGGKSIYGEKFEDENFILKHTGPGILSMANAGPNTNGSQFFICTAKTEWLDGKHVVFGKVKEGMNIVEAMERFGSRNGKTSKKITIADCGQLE

SMILES | % signal | IC50 | % inhibition of CsA binding to Cyclophilin A
C/C=C/C[C@@H](C)[C@@H](O)[C@H]1C(=O)N[C@@H](CC)C(=O)N(C)CC(=O)N(C)[C@@H](CCC)C(=O)N[C@@H](C(C)C)C(=O)N(C)[C@@H](CC(C)C)C(=O)N[C@@H](CC(C)C)C(=O)N[C@H](C)C(=O)N(C)[C@@H](CC(C)C)C(=O)N(C)[C@@H](CC(C)C)C(=O)N(C)[C@@H](C(C)C)C(=O)N1C [Compound C54] (cyclo([MeBmt][Abu][Sar][NMeNva]V[NMeL]L[dA][NMeL][NMeL][NMeV])) | 0.90% | < 2000 nM | 99.10%
C/C=C/C[C@@H](C)[C@@H](O)[C@H]1C(=O)N[C@@H](CC)C(=O)N(C)CC(=O)N(C)[C@H](C(C)C)C(=O)N[C@@H](C(C)C)C(=O)N(C)[C@@H](CC(C)C)C(=O)N[C@@H](CC(C)C)C(=O)N[C@H](C)C(=O)N(C)[C@@H](CC(C)C)C(=O)N(C)[C@@H](CC(C)C)C(=O)N(C)[C@@H](C(C)C)C(=O)N1C [Compound C55] (cyclo([MeBmt][Abu][Sar][dNMeV]V[NMeL]L[dA][NMeL][NMeL][NMeV])) | 32.88% | < 2000 nM | 67.12%
C/C=C/C[C@@H](C)[C@@H](O)[C@H]1C(=O)N[C@@H](CC)C(=O)N(C)CC(=O)N(C)[C@@H](CCCC)C(=O)N[C@@H](C(C)C)C(=O)N(C)[C@@H](CC(C)C)C(=O)N[C@@H](CC(C)C)C(=O)N[C@H](C)C(=O)N(C)[C@@H](CC(C)C)C(=O)N(C)[C@@H](CC(C)C)C(=O)N(C)[C@@H](C(C)C)C(=O)N1C [Compound C56] | 2.44% | < 2000 nM | 97.56%
C/C=C/C[C@@H](C)[C@@H](O)[C@H]1C(=O)N[C@@H](CC)C(=O)N(C)CC(=O)N(C)[C@@H]([C@@H](C)CC)C(=O)N[C@@H](CC(C)C)C(=O)N(C)[C@@H](CC(C)C)C(=O)N[C@@H](CC(C)C)C(=O)N[C@H](C)C(=O)N(C)[C@@H](CC(C)C)C(=O)N(C)[C@@H](CC(C)C)C(=O)N(C)[C@@H](C(C)C)C(=O)N1C [Compound C57] (cyclo([MeBmt][Abu][Sar][NMeI]L[NMeL]L[dA][NMeL][NMeL][NMeV])) | 0.15% | < 2000 nM | 99.85%
C/C=C/C[C@@H](C)[C@@H](O)[C@H]1C(=O)N[C@@H](CC)C(=O)N(C)CC(=O)N(C)[C@@H](C)C(=O)N[C@@H](CC(C)C)C(=O)N(C)[C@@H](CC(C)C)C(=O)N[C@@H](CC(C)C)C(=O)N[C@H](C)C(=O)N(C)[C@@H](CC(C)C)C(=O)N(C)[C@@H](CC(C)C)C(=O)N(C)[C@@H](C(C)C)C(=O)N1C [Compound C58] (cyclo([MeBmt][Abu][Sar][NMeA]L[NMeL]L[dA][NMeL][NMeL][NMeV])) | 3.28% | < 2000 nM | 96.72%
C/C=C/C[C@@H](C)[C@@H](O)[C@H]1C(=O)N[C@@H](CC)C(=O)N(C)CC(=O)N(C)[C@H](C)C(=O)N[C@@H](CC(C)C)C(=O)N(C)[C@@H](CC(C)C)C(=O)N[C@@H](CC(C)C)C(=O)N[C@H](C)C(=O)N(C)[C@@H](CC(C)C)C(=O)N(C)[C@@H](CC(C)C)C(=O)N(C)[C@@H](C(C)C)C(=O)N1C [Compound C59] (cyclo([MeBmt][Abu][Sar][dNMeA]L[NMeL]L[dA][NMeL][NMeL][NMeV])) | 11.76% | < 2000 nM | 88.24%
C/C=C/C[C@@H](C)[C@@H](O)[C@H]1C(=O)N[C@@H](CC)C(=O)N(C)CC(=O)N(C)[C@@H](Cc2ccccc2)C(=O)N[C@@H](CC(C)C)C(=O)N(C)[C@@H](CC(C)C)C(=O)N[C@@H](CC(C)C)C(=O)N[C@H](C)C(=O)N(C)[C@@H](CC(C)C)C(=O)N(C)[C@@H](CC(C)C)C(=O)N(C)[C@@H](C(C)C)C(=O)N1C [Compound C60] (cyclo([MeBmt][Abu][Sar][NMeF]L[NMeL]L[dA][NMeL][NMeL][NMeV])) | 52.68% | < 2000 nM | 47.32%
C/C=C/C[C@@H](C)[C@@H](O)[C@H]1C(=O)N[C@@H](CC)C(=O)N(C)CC(=O)N(C)CC(=O)N[C@@H](CC(C)C)C(=O)N(C)[C@@H](CC(C)C)C(=O)N[C@@H](CC(C)C)C(=O)N[C@H](C)C(=O)N(C)[C@@H](CC(C)C)C(=O)N(C)[C@@H](CC(C)C)C(=O)N(C)[C@@H](C(C)C)C(=O)N1C [Compound C61] (cyclo([MeBmt][Abu][Sar][Sar]L[NMeL]L[dA][NMeL][NMeL][NMeV])) | 14.38% | < 2000 nM | 85.62%
C/C=C/C[C@@H](C)[C@@H](O)[C@H]1C(=O)N[C@@H](CC)C(=O)N(C)CC(=O)N(C)[C@@H](CC(C)C)C(=O)N[C@@H](CC(C)C)C(=O)N(C)[C@@H](CC(C)C)C(=O)N[C@@H](CC(C)C)C(=O)N[C@H](C)C(=O)N(C)[C@@H](CC(C)C)C(=O)N(C)[C@@H](CC(C)C)C(=O)N(C)[C@@H](C(C)C)C(=O)N1C [Compound C62] (cyclo([MeBmt][Abu][Sar][NMeL]L[NMeL]L[dA][NMeL][NMeL][NMeV])) | 27.12% | < 2000 nM | 72.88%
C/C=C/C[C@@H](C)[C@@H](O)[C@H]1C(=O)N[C@@H](CC)C(=O)N(C)CC(=O)N(C)[C@@H]([C@@H](C)O)C(=O)N[C@@H](CC(C)C)C(=O)N(C)[C@@H](CC(C)C)C(=O)N[C@@H](CC(C)C)C(=O)N[C@H](C)C(=O)N(C)[C@@H](CC(C)C)C(=O)N(C)[C@@H](CC(C)C)C(=O)N(C)[C@@H](C(C)C)C(=O)N1C [Compound C63] (cyclo([MeBmt][Abu][Sar][NMeT]L[NMeL]L[dA][NMeL][NMeL][NMeV])) | 4.64% | < 2000 nM | 95.36%
C/C=C/C[C@@H](C)[C@@H](O)[C@H]1C(=O)N[C@@H](CC)C(=O)N(C)CC(=O)N(C)[C@@H](Cc2ccc(O)cc2)C(=O)N[C@@H](CC(C)C)C(=O)N(C)[C@@H](CC(C)C)C(=O)N[C@@H](CC(C)C)C(=O)N[C@H](C)C(=O)N(C)[C@@H](CC(C)C)C(=O)N(C)[C@@H](CC(C)C)C(=O)N(C)[C@@H](C(C)C)C(=O)N1C [Compound C64] (cyclo([MeBmt][Abu][Sar][NMeY]L[NMeL]L[dA][NMeL][NMeL][NMeV])) | 28.50% | < 2000 nM | 71.50%

Results, then the compound that gave them:

% signal | IC50 | % inhibition of CsA binding to Cyclophilin A | SMILES
19.41% | < 2000 nM | 80.59% | C/C=C/C[C@@H](C)[C@@H](O)[C@H]1C(=O)N[C@@H](CC)C(=O)N(C)CC(=O)N(C)CC(=O)N[C@@H](C(C)C)C(=O)N(C)[C@@H](CC(C)C)C(=O)N[C@@H](CC(C)C)C(=O)N[C@H](C)C(=O)N(C)[C@@H](CC(C)C)C(=O)N(C)[C@@H](CC(C)C)C(=O)N(C)[C@@H](C(C)C)C(=O)N1C [Compound C49] (cyclo([MeBmt][Abu][Sar][Sar]V[NMeL]L[dA][NMeL][NMeL][NMeV]))
6.06% | < 2000 nM | 93.94% | C/C=C/C[C@@H](C)[C@@H](O)[C@H]1C(=O)N[C@@H](CC)C(=O)N(C)CC(=O)N(C)[C@@H](CC(C)C)C(=O)N[C@@H](C(C)C)C(=O)N(C)[C@@H](CC(C)C)C(=O)N[C@@H](CC(C)C)C(=O)N[C@H](C)C(=O)N(C)[C@@H](CC(C)C)C(=O)N(C)[C@@H](CC(C)C)C(=O)N(C)[C@@H](C(C)C)C(=O)N1C [Compound C50]
3.38% | < 2000 nM | 96.62% | C/C=C/C[C@@H](C)[C@@H](O)[C@H]1C(=O)N[C@@H](CC)C(=O)N(C)CC(=O)N(C)[C@@H]([C@@H](C)O)C(=O)N[C@@H](C(C)C)C(=O)N(C)[C@@H](CC(C)C)C(=O)N[C@@H](CC(C)C)C(=O)N[C@H](C)C(=O)N(C)[C@@H](CC(C)C)C(=O)N(C)[C@@H](CC(C)C)C(=O)N(C)[C@@H](C(C)C)C(=O)N1C [Compound C51] (cyclo([MeBmt][Abu][Sar][NMeT]V[NMeL]L[dA][NMeL][NMeL][NMeV]))
7.40% | < 2000 nM | 92.60% | C/C=C/C[C@@H](C)[C@@H](O)[C@H]1C(=O)N[C@@H](CC)C(=O)N(C)CC(=O)N(C)[C@@H](Cc2ccc(O)cc2)C(=O)N[C@@H](C(C)C)C(=O)N(C)[C@@H](CC(C)C)C(=O)N[C@@H](CC(C)C)C(=O)N[C@H](C)C(=O)N(C)[C@@H](CC(C)C)C(=O)N(C)[C@@H](CC(C)C)C(=O)N(C)[C@@H](C(C)C)C(=O)N1C [Compound C52] (cyclo([MeBmt][Abu][Sar][NMeY]V[NMeL]L[dA][NMeL][NMeL][NMeV]))
−0.01% | < 2000 nM | 100.01% | C/C=C/C[C@@H](C)[C@@H](O)[C@H]1C(=O)N[C@@H](CC)C(=O)N(C)CC(=O)N(C)[C@@H](C(C)C)C(=O)N[C@@H](C(C)C)C(=O)N(C)[C@@H](CC(C)C)C(=O)N[C@@H](CC(C)C)C(=O)N[C@H](C)C(=O)N(C)[C@@H](CC(C)C)C(=O)N(C)[C@@H](CC(C)C)C(=O)N(C)[C@@H](C(C)C)C(=O)N1C [Compound C53] (cyclo([MeBmt][Abu][Sar][NMeV]V[NMeL]L[dA][NMeL][NMeL][NMeV]))
